Experimental data reported in US20230338391A1, “TREATMENT FOR DEPRESSION” (TAKEDA PHARMACEUTICAL COMPANY LIMITED, priority 2020, published 2023).
Read-outs that look alike come from different tables or passages of the source.

Columns and labels:
healthy subjects = test: TMS crossover study: safety and tolerability; settings: single doses 0.5 mg and 6 mg oral tablets
[1] = 13-week NHP GLP toxicity study: toxicokinetics; assay type: in vivo, Monkey (Macaca fascicularis); settings: cynomolgus monkey, plasma, oral; range across all TK sampling days (1st, 29th, 90th dosing)
Procedure: Blood samples (a target of 0.5 mL each, Na-heparin tubes) were collected from all animals at the following timepoints: • Phase 1: at 4 hours after dosing. • Phase 2: Plasma concentrations of COMPOUND A and its metabolites were determined for all dose groups after the 1st, the 29th dosing and the 90th dosing. Blood collection occurred in each animal in all groups before dosing (at the 29th and 90th dose only) and 1, 2, 4, 8, and 24 hours after dosing. Blood samples were collected into Na-heparin tubes via the implanted catheter or from the jugular, cephalic or femoral vein by venipuncture; tubes were kept on wet ice pending centrifugation. The blood samples were centrifuged at 5400×g for 5 minutes under cooling conditions (set to 4° C.) to obtain the plasma. The plasma was divided into duplicate samples (at least 100 μL each) and was kept on dry ice and stored in a freezer set to −20° C. until shipment. Back-up samples (set 2 of 2) were stored separately from set 1 of 2.
Non-compartmental toxicokinetic analysis was performed by the subcontractor on the plasma concentration data for COMPOUND A, and its metabolites using validated WinNonlin software. The TK parameters (tmax, Cmax, t1/2, MRT24, MRTinf, AUC24 and AUCinf) were calculated for all animals except for the control animals.

[2] = 13-week NHP GLP toxicity study: clinical signs, EEG/EMG telemetry, pathology; assay type: in vivo, Monkey (Macaca fascicularis); settings: cynomolgus monkey, in vivo, oral gavage once daily, 13 weeks, read-out: no-observed-adverse-effect level (NOAEL)
Procedure: (§1) The appropriate volume of reverse osmosis water was added into a suitable sized container and heated between 70° C. and 90° C. An appropriate amount of MC (METOLOSE SM-100, Shin-Etsu Chemical Co Ltd) was weighed and transferred (while stirring) to the container with heated reverse osmosis water. The solution was cooled down until a clear solution was obtained (an ice bath was used). The solution was stored refrigerated (set to 2-8° C.) until used. Unused reference item/vehicle was discarded when not needed anymore. To make a 0.2 w/v % suspension of COMPOUND A, an appropriate amount of the test item was weighed. A small volume of vehicle was added to slowly wet the test item. The appropriate volume of vehicle was added to reach the final volume and the formulation was homogenized using a homogenizer until a uniform suspension was achieved and stirred for 30 to 59 minutes. The 0.2 w/v % suspension was then diluted with the 0.5 w/v % MC in reverse osmosis water solution to make 0.12, 0.06 and 0.006 w/v % suspensions. However, on Oct. 1, 2015, the 1.2 mg/mL formulation was prepared by dissolving the appropriate amount of COMPOUND A in the vehicle, instead of diluting the 2 mg/mL formulation to reach the appropriate concentration. This deviation had no impact on the study since the appropriate concentration was prepared.
(§2) After suitable acclimation to the dosing procedure, the reference item (0.5% methylcellulose (MC) in reverse osmosis water) was administered once by oral gavage during Phase 1 of the study. The objective of Phase 1 was to confirm the EEG morphologies in all animals before and after dosing procedures. The traces generated during Phase 1 were used for interpretation of Phase 2 data. Beginning 1 day later, the reference item or COMPOUND A was administered once daily by oral gavage for 90 days during Phase 2 as shown in Table 7.
(§3) Clinical signs (ill health, behavioral changes, etc.) were recorded on surviving animals twice daily during all phases of study and monitored continuously for at least 16 hours after the 1st, 3rd, 7th, 14th and 28th dose administration in Phase 2, using digital cameras (to minimize stress for the animals) or using direct observation when needed or during dose administration. Additional clinical observations were performed when deemed necessary.
(§4) EEGs and EMGs were obtained from the animals using telemetry transmitter leads inserted subcutaneously using bipolar derivations (EMG, C4-O2 and Cz-Oz).
(§5) EEG and EMG monitoring was recorded continuously (except during study designated procedures or other procedures such as data backup) from at least 72 hours prior to the first dose of Phase 1 to at least 24 hours after the 28th dose of Phase 2. EEG and EMG monitoring was also recorded continuously (except during study designated procedures or other procedures such as data backup) for a period of at least 36 hours (from at least 12 hours prior to dosing until at least 24 hours post-dosing) once in the 8th week of dosing and once towards the end of the dosing period (13th week of dosing) in Phase 2.
(§6) Using the NeuroScore software (Data Science International), EEGs were analyzed from at least 24 hours prior to the first dose of Phase 1 to at least 24 hours after the 28th dose in Phase 2, and for a period of at least 36 hours (from at least 12 hours prior to dosing until at least 24 hours post-dosing) once in the 8th week of dosing and once towards the end of the dosing period (13th week of dosing) in Phase 2. […] EMGs were used to aid in the interpretation of the EEG data.
(§7) EEGs were reviewed by the Neurologist at the following timepoints: 1-1.5, 2.5-5.5, and 7-7.5 hours following the 1st, 3rd, 7th, 14th and 28th dose administration in Phase 2. The observance of abnormal behaviors/convulsions in individual animals by laboratory personnel also triggered an EEG review for approximately the same time period during which the abnormal behavior was witnessed. […]

cynomolgus monkeys = test: as above; assay type: in vivo, Monkey (Macaca fascicularis)
Procedure: as §1, §2, §3, §4, §5, §6, §7

MEPs = test: Nonclinical MEP amplitude in rats; assay type: in vivo; settings: nonclinical data

SMILES: CC1=CN2CCS(=O)(=O)N=C2C(c2ccc(OC3CCCCC3)cc2)=N1 [COMPOUND A, 9-[4-(Cyclohexyloxy)phenyl]-7-methyl-3,4-dihydropyrazino[2,1-c][1,2,4]thiadiazine 2,2-dioxide]
- deaths or SAEs (healthy subjects): No deaths or SAEs were reported
- Tmax [1]: 2 to 15 h
- NOAEL at 13 weeks ([2]; female, females): 3 mg/kg/day
- NOAEL at 13 weeks ([2]; male, males): 10 mg/kg/day
- qEEG total power (cynomolgus monkeys; 0.3 and 3 mg/kg/day, after 2nd and 27th dose): associated with an increase in total EEG power
- clinical signs and EEG (cynomolgus monkeys; 0.3 or 3.0 mg/kg/day, males or females): no adverse clinical signs or abnormal EEG changes
- clinical signs (cynomolgus monkeys; females, 6.0 mg/kg/day): myoclonic jerks, decreased activity, weakness, and uncoordination were observed
- clinical signs (cynomolgus monkeys; females, 10.0 mg/kg/day): salivation, excessive licking, decreased activity, weakness, lying on cage floor, nystagmus, uncoordination, muscle twitches and myoclonic jerks were observed
- generalized seizures (EEG) (cynomolgus monkeys; females, 10.0 mg/kg/day): Self-limiting generalized seizures, confirmed by EEG, were observed in two female monkeys
- clinical signs (cynomolgus monkeys; males, 10 mg/kg/day): decreased activity, tremors and circling were observed at 10 mg/kg/day but were not considered adverse
- amplitude of MEPs (MEPs): increases the amplitude of MEPs in rats
